{"source": "patent US20120316199A1", "about": "“COMPOSITIONS AND METHODS FOR TREATING, CONTROLLING, REDUCING, OR AMELIORATING INFLAMMATORY PAIN” (priority 2011, published 2012)", "key": {"[1]": {"test_system": "IL-1β-stimulated cytokine expression in primary human corneal epithelial cells", "assay": "IL-1β-stimulated cytokine production in primary human corneal epithelial cells (30-cytokine Luminex kit)", "details": "HCECs", "protocol": "Primary HCECs were seeded in 24-well plates. […] Each treatment was performed in triplicate. Media were collected and used for determination of cytokine content using a 30-cytokine Luminex kit. Cell viability was determined by alamarBlue assay (LP06013).\nMedian fluorescence intensity (MFI) was used to obtain the concentration of each cytokines in pg/ml based on the standard curve of each cytokine assayed by Luminex. The linear range of the standard curve for each cytokine was used for determination of cytokine concentration. Duplicate values for each sample were averaged. Data were expressed as mean±SD. Statistical analysis was performed using one-way ANOVA-Dunnett's test, and P<0.05 was considered statistically significant."}, "[2]": {"test_system": "pupillary diameter", "assay": "Pupillary diameter measurement, rabbit paracentesis model", "format": "in vivo, Rabbit (New Zealand)", "details": "for Pupillary diameter T2: −5 min: 5 min before the first paracentesis; for Pupillary diameter T2: −5 min / Pupillary diameter T3: +115 min / Pupillary diameter T1: −180 min: raw data per eye, listed as BOL; for Pupillary diameter T3: +115 min: 5 min before the second paracentesis; for Pupillary diameter T1: −180 min: basal; for Mean (mm) Δ(T3 − T1) of pupillary diameter: group mean, n=8 eyes"}, "[3]": {"test_system": "iris and conjunctival vessels, anterior chamber", "assay": "Clinical evaluation by slit lamp (clinical score), rabbit paracentesis model", "format": "in vivo, Rabbit (New Zealand)", "design": "key to Clinical Score −180 min / Clinical Score −5 min / Clinical Score +115 min: 0=normal; 1=discrete dilatation of iris and conjunctival vessels; 2=moderate dilatation of iris and conjunctival vessels; 3=intense iridal hyperemia with flare in the anterior chamber; 4=intense iridal hyperemia with flare in the anterior chamber and presence of fibrinous exudates", "details": "for Clinical Score −5 min: 5 min before the first paracentesis; for Clinical Score −5 min / Clinical Score +115 min / Clinical Score −180 min: raw data per eye; for Clinical Score +115 min: 5 min before the second paracentesis; for Clinical Score −180 min: basal"}, "[4]": {"test_system": "pain following cataract surgery", "assay": "Clinical study after cataract surgery: Grade 0 pain", "format": "in vivo, human", "source_text": "There were 8 treatment groups in this study, consisting of three drug doses, vehicle and three dosing frequencies (see also Table 4-1): • Group A: 1% BOL-303242-X ophthalmic suspension, two times per day (BID) • Group B: 2% BOL-303242-X ophthalmic suspension, one time per day (QD) • Group C: 2% BOL-303242-X ophthalmic suspension, BID • Group D: 2% BOL-303242-X ophthalmic suspension, four times per day (QID) • Group E: 3% BOL-303242-X ophthalmic suspension, QD • Group F: 3% BOL-303242-X ophthalmic suspension, BID • Group G: 3% BOL-303242-X ophthalmic suspension, QID • Group H: Vehicle for BOL-303242-X (divided equally into QID, BID, and QD)\nSubjects self-administered study drug, instilling 1 to 2 drops of study drug into the study eye: QID at approximately 4 hour intervals, BID at approximately 12 hour intervals, or QD once in the morning, for 14 days. The initial dose occurred in the clinic at Visit 3 and the final dose was on the day before Visit 6 (postoperative Day 15±1 day). Subjects were examined and evaluated according to the following schedule:\nVisit 1 (screening), Visit 2 (cataract surgery), Visit 3 (postoperative Day 1), Visit 4 (postoperative Day 3±1 day), Visit 5 (postoperative Day 8±1 day), Visit 6 (postoperative Day 15±1 day), Visit 7 (postoperative Day 18±1 day). Subject assessments included adverse events (AEs), concomitant medications, ocular symptoms, pinholed Snellen visual acuity (VA), intraocular pressure (IOP), ocular signs (biomicroscopy), fundoscopy, and study drug drop sensation. In addition, subject diaries were collected and reviewed for accuracy and treatment compliance.\nSecondary Efficacy: The secondary efficacy endpoints for this study were the proportions of subjects with Grade 0 pain at Visit 5 (postoperative Day 8) and at each visit, complete resolution of AC cells at each visit, complete resolution of AC cells and flare at each visit, complete resolution of AC flare at each visit, change from baseline to each follow-up visit in AC cells and AC flare combined and separately, ocular symptoms."}, "[5]": {"test_system": "PGE2 in the aqueous humor", "assay": "Prostaglandin E2 (PGE2) measurement in aqueous humor, rabbit paracentesis model", "format": "in vivo, Rabbit (New Zealand)", "details": "for PGE2 in aqueous humor, statistical significance versus CTR: p<0.05; for PGE2 level in aqueous humor, Mean: second paracentesis, group mean", "method": "Each rabbit was placed in a restraint device and tagged with the alphanumeric code. The formulations were instilled (50 μl) into the conjunctival sac of both eyes 180, 120, 90 and 30 min before the first paracentesis; then 15, 30, 90 min after the first paracentesis. To perform the first paracentesis the animals were anaesthetized by intravenous injection of 5 mg/kg Zoletil® (Virbac; 2.5 mg/kg tiletamine HCl and 2.5 mg/kg zolazepam HCl) and one drop of local anesthetic (Novesina®, Novartis) was administered to the eye. Anterior chamber paracentesis was performed with a 26 G needle attached to a tuberculin syringe; the needle was introduced into the anterior chamber through the cornea, taking care not to damage the tissues. Two hours after the first paracentesis, the animals were sacrificed with 0.4 ml Tanax® (Intervet International B.V.) and the second paracentesis was performed. About 100 μl of aqueous humor were removed at the second paracentesis. Aqueous humor was immediately split in four aliquots and stored at −80° C. until analysis. Then both eyes were enucleated and the iris-ciliary body was carefully excised, placed in polypropylene tubes, and stored at −80° C. until analysis.\nFor the quantitative determination of PGE2 in the aqueous humor we used the PGE2 Immunoassay kit (R&D Systems; Cat. No. KGE004; Lot. No. 240010). Eleven microliters or 16 μl of aqueous humor were diluted to 110 μl or 160 μl with the calibrator diluent solution provided with the kit. One hundred microliters of samples and of standards were load into a 96-well plate and recorded in a plate layout. Samples were treated following the assay procedure described in the kit. A microplate reader (GDV, Italy; model DV 990 B/V6) set at 450 nm (wavelength correction at 540 nm) was used for making the calibration and analyzing the samples.\nPupillary diameter, PGE2, protein, PMN, and MPO were expressed as mean±SEM. Statistical analysis was performed using one way ANOVA followed by a Newman-Keuls post hoc test. Clinical score was expressed as % of eyes and the statistical analysis was performed using Kruskal-Wallis followed by a Dunn post hoc test. P<0.05 was considered statistically significant in both cases. Prism 4 software (GraphPad Software, Inc.) was used for the analysis and graphs."}, "[6]": {"details": "0.1% formulation, +115 min, N=8 eyes"}, "[7]": {"details": "0.5% formulation, +115 min, N=8 eyes"}}, "note": "Values joined by “and” are separate entries in the source; they are usually repeats but may differ in a detail not shown here. Identical values can stand only once."}
{"smiles": "Cc1ccc2c(NC[C@](O)(CC(C)(C)c3cc(F)cc4c3OCC4)C(F)(F)F)cccc2n1", "note": "[BOL-303242-X, mapracorat]", "values": [{"measurement": "Potency relative to dexamethasone, inhibition of IL-1β-stimulated IL-6, IL-7, TGF-α, TNF-α, VGEF, and MCP-1", "setting": "[1]", "value": "comparable potency"}, {"measurement": "Potency relative to dexamethasone, inhibition of IL-1β-stimulated production of G-CSF", "setting": "[1]", "value": "more potent than dexamethasone"}, {"measurement": "Potency relative to dexamethasone, inhibition of IL-1β-stimulated production of GM-CSF, IL-8, and RANTES", "setting": "[1]", "value": "somewhat less potent than dexamethasone"}, {"measurement": "Inhibition of IL-1β-stimulated production of IL-6, IL-7, MCP-1, TGF-α, TNF-α and VEGF", "setting": "[1]; 10 ng/ml IL-1β, 18 h, comparable potency of both compounds", "value": "significantly inhibited"}, {"measurement": "Effect on IL-1β-stimulated G-CSF production", "setting": "[1]; 18 h", "value": "significantly inhibited"}, {"measurement": "Inhibition of IL-1β-stimulated production of GM-CSF, IL-8, and RANTES", "setting": "[1]; 18 h, less potency compared to dexamethasone", "value": "significantly inhibited"}, {"measurement": "Pupillary diameter T2: −5 min", "setting": "[2]; 0.1% formulation", "value": "6.5 mm and 7.0 mm and 7.5 mm"}, {"measurement": "Pupillary diameter T3: +115 min", "setting": "[2]; 0.1% formulation", "value": "5.0 mm and 6.0 mm and 6.5 mm and 5.5 mm"}, {"measurement": "Pupillary diameter T1: −180 min", "setting": "[2]; 0.1% formulation", "value": "6.5 mm and 7.0 mm and 7.5 mm"}, {"measurement": "Mean (mm) Δ(T3 − T1) of pupillary diameter", "setting": "[2]; 0.1% formulation", "value": "−1.1", "unit": "mm"}, {"measurement": "Pupillary diameter T2: −5 min", "setting": "[2]; 0.5% formulation", "value": "8.0 mm and 7.0 mm and 7.5 mm"}, {"measurement": "Pupillary diameter T3: +115 min", "setting": "[2]; 0.5% formulation", "value": "6.5 mm and 6.0 mm and 7.0 mm"}, {"measurement": "Pupillary diameter T1: −180 min", "setting": "[2]; 0.5% formulation", "value": "8.0 mm and 7.0 mm and 7.5 mm"}, {"measurement": "Mean (mm) Δ(T3 − T1) of pupillary diameter", "setting": "[2]; 0.5% formulation", "value": "−1.0", "unit": "mm"}, {"measurement": "Pupillary diameter T2: −5 min", "setting": "[2]; 1% formulation", "value": "6.0 mm and 6.5 mm and 7.0 mm"}, {"measurement": "Pupillary diameter T3: +115 min", "setting": "[2]; 1% formulation", "value": "5.5 mm and 5.0 mm and 6.0 mm"}, {"measurement": "Pupillary diameter T1: −180 min", "setting": "[2]; 1% formulation", "value": "6.0 mm and 6.5 mm"}, {"measurement": "Mean (mm) Δ(T3 − T1) of pupillary diameter", "setting": "[2]; 1% formulation", "value": "−0.9", "unit": "mm"}, {"measurement": "Clinical Score −5 min", "setting": "[3]; 0.1% formulation", "value": 0}, {"measurement": "Clinical Score +115 min", "setting": "[3]; 0.1% formulation, listed as BOL", "value": "2 and 3"}, {"measurement": "Percentage of eyes with clinical score 2", "setting": "[3]; [6]", "value": 75, "unit": "%"}, {"measurement": "Percentage of eyes with clinical score 3", "setting": "[3]; [6]", "value": 25, "unit": "%"}, {"measurement": "Clinical Score −180 min", "setting": "[3]; 0.1% formulation", "value": 0}, {"measurement": "Percentage of eyes with clinical score 0", "setting": "[3]; 0.1% formulation, −5 min, N=8 eyes", "value": 100, "unit": "%"}, {"measurement": "Percentage of eyes with clinical score 0", "setting": "[3]; 0.1% formulation, −180 min (basal), N=8 eyes", "value": 100, "unit": "%"}, {"measurement": "Clinical Score −5 min", "setting": "[3]; 0.5% formulation", "value": 0}, {"measurement": "Clinical Score +115 min", "setting": "[3]; 0.5% formulation, listed as BOL", "value": "2 and 1"}, {"measurement": "Percentage of eyes with clinical score 1", "setting": "[3]; [7]", "value": 37.5, "unit": "%"}, {"measurement": "Percentage of eyes with clinical score 2", "setting": "[3]; [7]", "value": 62.5, "unit": "%"}, {"measurement": "Clinical Score −180 min", "setting": "[3]; 0.5% formulation", "value": 0}, {"measurement": "Percentage of eyes with clinical score 0", "setting": "[3]; 0.5% formulation, −5 min, N=8 eyes", "value": 100, "unit": "%"}, {"measurement": "Percentage of eyes with clinical score 0", "setting": "[3]; 0.5% formulation, −180 min (basal), N=8 eyes", "value": 100, "unit": "%"}, {"measurement": "Clinical Score −5 min", "setting": "[3]; 1% formulation", "value": 0}, {"measurement": "Clinical Score +115 min", "setting": "[3]; 1% formulation", "value": 2}, {"measurement": "Percentage of eyes with clinical score 2", "setting": "[3]; 1% formulation, +115 min, N=8 eyes", "value": 100, "unit": "%"}, {"measurement": "Clinical Score −180 min", "setting": "[3]; 1% formulation", "value": 0}, {"measurement": "Percentage of eyes with clinical score 0", "setting": "[3]; 1% formulation, −5 min, N=8 eyes", "value": 100, "unit": "%"}, {"measurement": "Percentage of eyes with clinical score 0", "setting": "[3]; 1% formulation, −180 min (basal), N=8 eyes", "value": 100, "unit": "%"}, {"measurement": "proportion of subjects with Grade 0 pain", "setting": "[4]; 2% QID, Visit 5 (postoperative Day 8), vehicle 50.0%", "value": 78.3, "unit": "%"}, {"measurement": "proportion of subjects with Grade 0 pain", "setting": "[4]; 3% BID, Visit 7 (postoperative Day 18), vehicle 31.7%", "value": 63.3, "unit": "%"}, {"measurement": "proportion of subjects with Grade 0 pain", "setting": "[4]; 3% QID, Visit 7 (postoperative Day 18), vehicle 31.7%", "value": 58.3, "unit": "%"}, {"measurement": "PGE2 in aqueous humor, statistical significance versus CTR", "setting": "[5]; 0.1% formulation", "value": "statistically significant versus CTR"}, {"measurement": "PGE2 level in aqueous humor, Mean", "setting": "[5]; 0.1% formulation", "value": 1.452, "unit": "ng/mL"}, {"measurement": "PGE2 in aqueous humor, statistical significance versus CTR", "setting": "[5]; 0.5% formulation", "value": "statistically significant versus CTR"}, {"measurement": "PGE2 level in aqueous humor, Mean", "setting": "[5]; 0.5% formulation", "value": 1.384, "unit": "ng/mL"}, {"measurement": "PGE2 level in aqueous humor, Mean", "setting": "[5]; 1% formulation", "value": 2.168, "unit": "ng/mL"}]}
